Measured values from patent US20130012466A1 (priority 2006, published 2013).
Entries after “also recorded” stand apart in the source; their conditions may differ. Where two headings read alike, the source gives them in different places.

Legend:
[1] = tested on: mouse mammary normal epithelial control cell line; assay: Cytotoxicity assay, normal control cell line
A549 = assay: Cytotoxicity assay (cell titer-glo and calcein AM), A549; details: A549, % error in parentheses
Du145 = assay: Cytotoxicity assay (cell titer-glo and calcein AM), Du145; details: Du145, % error in parentheses
Hep3B = assay: Cytotoxicity assay (cell titer-glo and calcein AM), Hep3B; details: Hep 3B, % error in parentheses
SF-268 = assay: Cytotoxicity assay (cell titer-glo and calcein AM), SF-268; details: SF-268, % error in parentheses
SK-OV-3 = assay: Cytotoxicity assay (cell titer-glo and calcein AM), SK-OV-3; details: SK-OV-3, % error in parentheses
ADR-RES = assay: Cytotoxicity assay (cell titer-glo and calcein AM), ADR-RES; details: NCI/ADR RES, % error in parentheses
NCI-H460 = assay: Cytotoxicity assay (cell titer-glo and calcein AM), NCI-H460; details: NCI-H460, % error in parentheses
MCF7 = assay: Cytotoxicity assay (cell titer-glo and calcein AM), MCF7
[2] = Precipitation in assay media; format: physicochemical; details: cell culture media / assay
[3] = tested on: nine human cancer cell lines and one normal mouse control cell line; assay: Cytotoxicity screen across the whole cell line panel; format: cell-based; details: cell lines other than ADR-Res, SF-268 and HCT-116; read-out: potencies (IC50) in all other cell lines examined
tubulin = assay: In vitro tubulin polymerization assay (fluorescence-based); format: biochemical; parameters: key to tubulin polymeriz.: ‘D’ designates destabilizer; ‘S’ designates stabilizer
Experimental: In vitro tubulin polymerization assays were performed using a fluorescence-based assay (Cytoskeleton, Inc., Denver, Colo.). […] Aliquots (5 μL) of each compound or control were added to a 96-well black half area plate (Corning Costar, Inc.) pre-warmed to 37° C. Cold tubulin reaction mix (50 μL 1× Buffer—80 mM piperazine-N,N′-bis[2-ethanesulfonic acid]sequisodium salt; 2.0 mM magnesium chloride; 0.5 mM ethylene glycol-bis[β-amino-ethyl ether) N,N,N′,N′-tetra-acetic acid, pH 6.9, 10 μM fluorescent reporter; 20% tubulin glycerol buffer—80 mM piperazine-N,N′-bis[2-ethanesulfonic acid] sequisodium salt; 2.0 mM magnesium chloride; 0.5 mM ethylene glycol-bis(β-amino-ethyl ether) N,N,N′,N′-tetra-acetic acid, 60% v/v glycerol, pH 6.9, 1 mM GTP; and 2 mg mL^−1 tubulin stock) was added to each of the compounds. […] Polymerization curves were generated in Excel after background correction and the effects of test compounds were compared to controls.
Library members that accelerated the rate of tubulin polymerization were deemed microtubule stabilizers, whereas compounds that decelerated the rate of tubulin polymerization were deemed microtubule de-stabilizers.

A549 cells [4] = assay: Drug combination study with colchicine (Chou-Talalay combination index)
Experimental: (§1) Ten thousand A549 cells per well were plated in triplicate in 96 well black tissue culture treated plates. Cells were incubated for one hour at 37° C. to allow cells to attach.
(§2) All synergy experiment results were replicated at least three times and the overall effects analyzed by averaging all combination indexes generated if the fraction affected was greater than 0.2.

A549 cells [5] = assay: Drug combination study with paclitaxel (Chou-Talalay combination index);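 further: combination indexes averaged only over points where fraction affected exceeded 0.2, with each synergy experiment repeated at least three times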
Experimental: as §1, §2

[6] = read-out: Cytotoxicity IC50, NmuMG, CTG, CTG (cell titer-glo) readout, % error in parentheses
[7] = read-out: Cytotoxicity IC50, NmuMG, calcein, calcein AM readout, % error in parentheses
[8] = read-out: Cytotoxicity IC50, A549, CTG, CTG (cell titer-glo) readout
[9] = read-out: Cytotoxicity IC50, A549, calcein, calcein AM readout
[10] = read-out: Cytotoxicity IC50, Du145, CTG, CTG (cell titer-glo) readout
[11] = read-out: Cytotoxicity IC50, Du145, calcein, calcein AM readout
[12] = read-out: Cytotoxicity IC50, Hep 3B, CTG, CTG (cell titer-glo) readout
[13] = read-out: Cytotoxicity IC50, Hep 3B, calcein, calcein AM readout
[14] = read-out: Cytotoxicity IC50, SF-268, CTG, CTG (cell titer-glo) readout
[15] = read-out: Cytotoxicity IC50, SF-268, calcein, calcein AM readout
[16] = read-out: Cytotoxicity IC50, SK-OV-3, CTG, CTG (cell titer-glo) readout
[17] = read-out: Cytotoxicity IC50, SK-OV-3, calcein, calcein AM readout
[18] = read-out: Cytotoxicity IC50, NCI/ADR RES, CTG, CTG (cell titer-glo) readout
[19] = read-out: Cytotoxicity IC50, NCI/ADR RES, calcein, calcein AM readout
[20] = read-out: Cytotoxicity IC50, NCI-H460, CTG, CTG (cell titer-glo) readout
[21] = read-out: Cytotoxicity IC50, NCI-H460, calcein, calcein AM readout
[22] = read-out: Cytotoxicity IC50, MCF7, CTG, CTG (cell titer-glo) readout, % error in parentheses
[23] = read-out: Cytotoxicity IC50, MCF7, calcein, calcein AM readout, % error in parentheses
[24] = combination index, colchicine held at IC10, A549 cells
[25] = drug combination, A549 cells, Chou-Talalay
[26] = combination index, paclitaxel held at IC10, A549 cells

Q: For `COc1cc2c(c(OC)c1OC)-c1ccc(OC)c(=O)cc1[C@@H](NC(=O)CN(OC)[C@@H]1O[C@H](CO)[C@@H](O[C@H]3O[C@H](CO)[C@@H](O[C@H]4O[C@H](CO)[C@@H](O)[C@H](O)[C@H]4O)[C@H](O)[C@H]3O)[C@H](O)[C@H]1O)CC2` [Col13, maltotrioside], which IC50 (HCT-116) is on record?
A: The IC50 was over 10000 nM.

Q: And the IC50 [1, 6]?
A: Its IC50 is over 10000 nM.

Q: What about the IC50 [1, 7] of the same compound?
A: The IC50 was over 10000 nM.

Q: What about the IC50 (A549; [8]) of the same compound?
A: The IC50 was over 10000 nM.

Q: And the IC50 (A549; [9])?
A: The IC50 was over 10000 nM.

Q: And the IC50 (Du145; [10])?
A: The IC50 was over 10000 nM.

Q: And the IC50 (Du145; [11])?
A: Its IC50 is over 10000 nM.

Q: And the IC50 (Hep3B; [12])?
A: Its IC50 is over 10000 nM.

Q: What about the IC50 (Hep3B; [13]) of the same compound?
A: The IC50 was over 10000 nM.

Q: And the IC50 (SF-268; [14])?
A: The IC50 was over 10000 nM.

Q: What about the IC50 (SF-268; [15]) of the same compound?
A: Its IC50 is over 10000 nM.

Q: What about the IC50 (SK-OV-3; [16]) of the same compound?
A: Its IC50 is over 10000 nM.

Q: What about the IC50 (SK-OV-3; [17]) of the same compound?
A: Its IC50 is over 10000 nM.

Q: And the IC50 (ADR-RES; [18])?
A: The IC50 was over 10000 nM.

Q: What about the IC50 (ADR-RES; [19]) of the same compound?
A: Its IC50 is over 10000 nM.

Q: What about the IC50 (NCI-H460; [20]) of the same compound?
A: Its IC50 is over 10000 nM.

Q: And the IC50 (NCI-H460; [21])?
A: Its IC50 is 2580 nM.

Q: And the IC50 (MCF7; [22])?
A: The IC50 was 9860 nM.

Q: What about the IC50 (MCF7; [23]) of the same compound?
A: The IC50 was over 10000 nM.

Q: With `COc1cc2c(c(OC)c1OC)-c1ccc(OC)c(=O)cc1C(NC(=O)CN(OC)C1OC(COCc3ccccc3)C(OCc3ccccc3)C1OCc1ccccc1)CC2` (stereo not shown) [Col53] as the compound, how does the precipitation [2] read?
A: Its precipitation is “precipitation in cell culture media; also recorded: precipitated”.

Q: And the IC50 [1, 6]?
A: The IC50 was 120 nM.

Q: What about the IC50 [1, 7] of the same compound?
A: The IC50 was 392 nM.

Q: And the IC50 (A549; [8])?
A: Its IC50 is 48 nM.

Q: And the IC50 (A549; [9])?
A: The IC50 was 62 nM.

Q: And the IC50 (Du145; [10])?
A: Its IC50 is 41 nM.

Q: What about the IC50 (Du145; [11]) of the same compound?
A: Its IC50 is 32 nM.

Q: What about the IC50 (Hep3B; [12]) of the same compound?
A: Its IC50 is 47 nM.

Q: And the IC50 (Hep3B; [13])?
A: Its IC50 is 69 nM.

Q: And the IC50 (SF-268; [14])?
A: Its IC50 is 37 nM.

Q: What about the IC50 (SF-268; [15]) of the same compound?
A: The IC50 was 18 nM.

Q: And the IC50 (SK-OV-3; [16])?
A: The IC50 was 42 nM.

Q: And the IC50 (SK-OV-3; [17])?
A: The IC50 was 36 nM.

Q: What about the IC50 (ADR-RES; [18]) of the same compound?
A: The IC50 was 46 nM.

Q: What about the IC50 (ADR-RES; [19]) of the same compound?
A: The IC50 was 37 nM.

Q: And the IC50 (NCI-H460; [20])?
A: The IC50 was 41 nM.

Q: And the IC50 (NCI-H460; [21])?
A: The IC50 was 71 nM.

Q: And the IC50 (MCF7; [22])?
A: The IC50 was 49 nM.

Q: And the IC50 (MCF7; [23])?
A: Its IC50 is 39 nM.

Q: With `COc1cc2c(c(OC)c1OC)-c1ccc(OC)c(=O)cc1[C@@H](NC(C)=O)CC2` [colchin] as the compound, how does the IC50 (HCT-116) read?
A: The IC50 was 153 nM.

Q: And the IC50 (Du145; [10])?
A: The IC50 was 169 nM.

Q: What about the IC50 (SF-268; [14]) of the same compound?
A: The IC50 was 67 nM.

Q: What about the IC50 (ADR-RES; [18]) of the same compound?
A: The IC50 was 18 nM.

Q: Which IC50 [3] does the source give for D-glucorono-6,3-lactonide [Col45] here?
A: The IC50 was over 900 nM.

Q: What about the tubulin polymeriz. (tubulin) of the same compound?
A: Its tubulin polymeriz. is “D”.

Q: And the “effect on tubulin polymerization / microtubules” value (tubulin; tested in duplicate on at least two days)?
A: Its value is “destabilizing; also recorded: destabilized microtubules”.

Q: And the IC50 [1, 6]?
A: Its IC50 is 1460 nM.

Q: And the IC50 [1, 7]?
A: Its IC50 is over 10000 nM.

Q: What about the IC50 (A549; [8]) of the same compound?
A: The IC50 was 1100 nM.

Q: And the IC50 (A549; [9])?
A: The IC50 was 1060 nM.

Q: And the IC50 (Du145; [10])?
A: Its IC50 is 1140 nM.

Q: What about the IC50 (Du145; [11]) of the same compound?
A: Its IC50 is 939 nM.

Q: What about the IC50 (Hep3B; [12]) of the same compound?
A: Its IC50 is 793 nM.

Q: And the IC50 (Hep3B; [13])?
A: The IC50 was 962 nM.

Q: And the IC50 (SF-268; [14])?
A: The IC50 was 398 nM.

Q: And the IC50 (SF-268; [15])?
A: The IC50 was 462 nM.

Q: What about the IC50 (SK-OV-3; [16]) of the same compound?
A: The IC50 was 836 nM.

Q: And the IC50 (SK-OV-3; [17])?
A: Its IC50 is 887 nM.

Q: And the IC50 (ADR-RES; [18])?
A: The IC50 was 1140 nM.

Q: What about the IC50 (ADR-RES; [19]) of the same compound?
A: Its IC50 is 403 nM.

Q: What about the IC50 (NCI-H460; [20]) of the same compound?
A: Its IC50 is 775 nM.

Q: What about the IC50 (NCI-H460; [21]) of the same compound?
A: Its IC50 is 1020 nM.

Q: What about the IC50 (MCF7; [22]) of the same compound?
A: The IC50 was 760 nM.

Q: What about the IC50 (MCF7; [23]) of the same compound?
A: The IC50 was 679 nM.

Q: And the “plus colchicine, mean CI” value (A549 cells [4]; [24])?
A: Its value is 107.40.

Q: What about the “plus colchicine, median CI” value (A549 cells [4]; [24]) of the same compound?
A: The value was 102.90.

Q: And the “interaction with colchicine” value (A549 cells [4]; [25])?
A: The value was “strong antagonism”.

Q: What about the “synergy (paclitaxel)” value (A549 cells [5]; combination index class, combination with paclitaxel, Chou-Talalay method) of the same compound?
A: The value was “++++ (strong synergism, Cl 0.1-0.3)”.

Q: And the “plus paclitaxel, mean CI” value (A549 cells [5]; [26])?
A: The value was 0.12.

Q: And the “plus paclitaxel, median CI” value (A549 cells [5]; [26])?
A: Its value is 0.07.

Q: And the “interaction with paclitaxel/taxol” value (A549 cells [5]; [25])?
A: Its value is “strong synergism”.
